Laboratory results from publication PMC8330740, “Discovery of new 3-methylquinoxalines as potential anti-cancer agents and apoptosis inducers targeting VEGFR-2: design, synthesis, and in silico studies” (Journal of Enzyme Inhibition and Medicinal Chemistry, 2021).

Key:
[1] = test system: HepG2 (human liver carcinoma cell line); experiment: MTT cytotoxicity assay, HepG2; assay type: cell-based; details: mean of at least three different experiments
Experimental: (§1) In vitro cytotoxicity was carried out using MTT assay protocol[47]^,[65–67] as described in Supplementary data.

[2] = test system: MCF-7 (human breast cancer cell line); experiment: MTT cytotoxicity assay, MCF-7; assay type: cell-based; details: for IC50: Homo sapiens, MCF7, MTT assay, mean of at least three different experiments; for Cytotoxic activity against the two cell lines (in words): MCF-7 and HepG2 together
Experimental: as §1

[3] = biological target: Human VEGFR-2 (Homo sapiens, UniProt P35968); experiment: In vitro VEGFR-2 kinase assay (Human VEGFR-2 ELISA kit)
Human VEGFR-2, sequence (P35968 20-1356): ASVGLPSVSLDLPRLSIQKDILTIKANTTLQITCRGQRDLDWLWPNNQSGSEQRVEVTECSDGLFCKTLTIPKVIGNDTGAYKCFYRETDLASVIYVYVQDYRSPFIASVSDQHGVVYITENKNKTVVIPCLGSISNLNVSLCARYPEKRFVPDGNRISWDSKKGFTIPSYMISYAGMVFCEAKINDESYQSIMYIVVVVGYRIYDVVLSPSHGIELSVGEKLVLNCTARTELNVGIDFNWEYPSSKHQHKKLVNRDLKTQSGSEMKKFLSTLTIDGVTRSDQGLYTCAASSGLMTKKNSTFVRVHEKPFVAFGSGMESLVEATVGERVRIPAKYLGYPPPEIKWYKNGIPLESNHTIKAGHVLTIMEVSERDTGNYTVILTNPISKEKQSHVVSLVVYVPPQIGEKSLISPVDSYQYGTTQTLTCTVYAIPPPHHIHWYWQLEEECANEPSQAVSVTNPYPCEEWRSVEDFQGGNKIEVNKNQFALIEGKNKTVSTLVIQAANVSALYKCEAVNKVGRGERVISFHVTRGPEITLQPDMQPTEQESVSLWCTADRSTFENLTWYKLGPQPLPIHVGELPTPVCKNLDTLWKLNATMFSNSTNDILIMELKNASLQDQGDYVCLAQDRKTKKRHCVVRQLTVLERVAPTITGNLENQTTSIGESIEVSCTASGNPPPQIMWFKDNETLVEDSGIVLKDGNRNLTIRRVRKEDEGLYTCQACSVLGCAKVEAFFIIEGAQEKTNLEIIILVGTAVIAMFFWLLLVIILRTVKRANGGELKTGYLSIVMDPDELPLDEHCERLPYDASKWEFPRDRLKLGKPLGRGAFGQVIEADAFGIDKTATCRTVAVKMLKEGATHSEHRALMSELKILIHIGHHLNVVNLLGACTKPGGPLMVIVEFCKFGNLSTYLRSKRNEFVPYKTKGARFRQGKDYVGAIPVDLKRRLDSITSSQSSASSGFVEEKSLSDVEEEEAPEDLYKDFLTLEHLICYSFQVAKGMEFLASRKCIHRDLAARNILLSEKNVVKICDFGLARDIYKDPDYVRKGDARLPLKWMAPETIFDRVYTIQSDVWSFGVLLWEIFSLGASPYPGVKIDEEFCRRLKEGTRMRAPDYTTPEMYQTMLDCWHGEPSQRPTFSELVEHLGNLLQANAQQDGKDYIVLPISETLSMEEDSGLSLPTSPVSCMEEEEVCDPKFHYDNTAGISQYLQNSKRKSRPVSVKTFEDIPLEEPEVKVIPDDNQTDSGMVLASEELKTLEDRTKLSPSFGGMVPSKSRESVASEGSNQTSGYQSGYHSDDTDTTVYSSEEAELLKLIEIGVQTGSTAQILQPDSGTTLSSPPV

[4] = test system: primary rat hepatocytes; experiment: In vitro cytotoxicity against normal cells; details: Hepatocyte, read-out: IC50 primary rat hepatocytes
[5] = test system: HepG2 cells; experiment: Apoptosis analysis (Annexin-V/propidium iodide staining); assay type: cell-based, human; details: HepG2, 2.1 µM, 24 h
Experimental: To quantify the apoptosis triggered by 11e, Annexin-V/propidium iodide (PI) staining assay was conducted. In such procedure, compound 11e at a concentration of 2.1 µM was applied on HepG2 cells. Then, the media were incubated for 24 h. […] In details, compound 11e induced apoptosis by 49.14% (early apoptosis = 48.87% & late apoptosis = 0.27%), compared to 9.71% in the control cells (early apoptosis = 9.58% & late apoptosis = 0.13%).
The effect of compound 11e on cell apoptosis was investigated as described in Supplementary data[74–76].

[6] = test system: HepG2 cells; experiment: Cell cycle analysis (propidium iodide staining, flow cytometry); assay type: cell-based, human; details: HepG2, 2.1 µM, 24 h
Experimental: HepG2 cells were used as a control without treatment by compound 11e.
The effect of compound 11e on cell cycle distribution was performed using propidium iodide (PI) staining technique as described in Supplementary data[71–73].

[7] = test system: caspase-3; experiment: Western blot, caspase-3 level in HepG2; assay type: cell-based, human; details: HepG2, 2.1 µM, 24 h; compared to control cells
Experimental: (§2) To investigate the effect of the synthesised compounds on caspase-3 and caspase-9 levels, the most promising member 11e was applied on the most sensitive cells (HepG2) at a concentration of 2.1 µM for 24 h.
(§3) Western blot technique was applied to assess the potential effect of compound 11e on the expression of caspase‐9, caspase‐3, BAX, and Bcl‐2 as reported in Supplementary data[77–79].

[8] = test system: caspase-9; experiment: Western blot, caspase-9 level in HepG2; assay type: cell-based, human; details: HepG2, 2.1 µM, 24 h; compared to control cells
Experimental: as §2, §3

[9] = test system: BAX; experiment: Western blot, BAX level in HepG2; assay type: cell-based, human; details: HepG2, 24 h
Experimental: (§4) Compound 11e as a promising member was investigated to evaluate its effect on BAX and Bcl-2 after 24 h of its application on HepG2 cells using Western blot technique.
as §3

[10] = test system: Bcl-2; experiment: Western blot, Bcl-2 level in HepG2; assay type: cell-based, human; details: HepG2, 24 h
Experimental: as §4, §3

[11] = mean ± SD of three experiments, listed as Compound 11e

SMILES	IC50 [1]	IC50 [2]	IC50 [3]	also measured
CNC(=O)c1ccc(NC(=O)CSc2nc3ccccc3nc2C)cc1 [Compound 12a, N-Methyl-4–(2-((3-methylquinoxalin-2-yl)thio)acetamido)benzamide]	23.7 µM	69.2 µM	0.0327 µM	Cytotoxic activity against the two cell lines (in words) [2]: weak cytotoxic activity
CC(=O)c1ccc(NC(=O)c2ccc(NC(=O)Cn3c(=O)c(C)nc4ccccc43)cc2)cc1 [Compound 11g, N-(4-Acetylphenyl)-4–(2-(3-methyl-2-oxoquinoxalin-1(2H)-yl)acetamido)benzamide]	3.8 µM	6.7 µM	0.0034 µM	–
COc1ccc(NC(=O)c2ccc(NC(=O)Cn3c(=O)c(C)nc4ccccc43)cc2)cc1 [Compound 11f, N-(4-Methoxyphenyl)-4–(2-(3-methyl-2-oxoquinoxalin-1(2H)-yl)acetamido)benzamide]	9.6 µM	12.4 µM	0.0048 µM	–
Cc1nc2ccccc2n(CC(=O)Nc2ccc(C(=O)Nc3nccs3)cc2)c1=O [Compound 11j, 4–(2-(3-Methyl-2-oxoquinoxalin-1(2H)-yl)acetamido)-N-(thiazol-2-yl)benzamide]	27.8 µM	32.8 µM	0.0134 µM	Cytotoxic activity against the two cell lines (in words) [2]: weak cytotoxic activity
CNC(=O)c1ccc(NC(=O)Cn2c(=O)c(C)nc3ccccc32)cc1 [Compound 11a, N-Methyl-4–(2-(3-methyl-2-oxoquinoxalin-1(2H)-yl)acetamido)benzamide]	16.5 µM	23.9 µM	0.0112 µM	–
COc1cccc(NC(=O)c2ccc(NC(=O)CSc3nc4ccccc4nc3C)cc2)c1 [Compound 12e, N-(3-Methoxyphenyl)-4–(2-((3-methylquinoxalin-2-yl)thio)acetamido) benzamide]	4.8 µM	5.3 µM	0.0038 µM	IC50 [4]: 16.7 µM
COc1cccc(NC(=O)c2ccc(NC(=O)Cn3c(=O)c(C)nc4ccccc43)cc2)c1 [Compound 11e, N-(3-Methoxyphenyl)-4–(2-(3-methyl-2-oxoquinoxalin-1(2H)-yl)acetamido)benzamide]	2.1 µM	2.7 µM	0.0026 µM	induced apoptosis (early + late) ([5]; control 9.71%): 49.14%; Apoptosis Early (Right Bottom) ([5]; mean ± SD of three experiments): 48.87%; Apoptosis Late (Right Top) ([5]; mean ± SD of three experiments): 0.27%; Necrosis (Left Top) ([5]; mean ± SD of three experiments): 0.20 ± 0.03; Apoptosis Early (Right Bottom) [5, 11]: 48.87 ± 3.69%; Apoptosis Late (Right Top) [5, 11]: 0.27 ± 0.04%; viability at 2.1 µM ([5]; Homo sapiens, mean ± SD of three experiments, read-out: Viable (Left Bottom)): 50.6 ± 3.66%; phase at which HepG2 cell growth is arrested [6]: G2/M phase; percentage of cells at the G2/M phase ([6]; control 18.24%): 46.62%; percentage of cells at the S phase ([6]; control 25.48): 31.80%; percentage of cells at G1 phase ([6]; control 55.03%): 20.34%; increase in the level of caspase-3 [7]: 2.34 fold; increase in the level of caspase-9 [8]: 2.34 fold; BAX level increase [9]: 3.14 fold; BAX/Bcl-2 ratio [9]: 9.17; IC50 [4]: 15 µM; Bcl-2 level decrease [10]: 3.13 fold
CCC(C)NC(=O)c1ccc(NC(=O)Cn2c(=O)c(C)nc3ccccc32)cc1 (stereo not drawn) [Compound 11b, N-(sec-Butyl)-4–(2-(3-methyl-2-oxoquinoxalin-1(2H)-yl)acetamido)benzamide]	12.8 µM	21.2 µM	0.0053 µM	–
Cc1nc2ccccc2nc1SCC(=O)Nc1ccc(C(=O)NC2CCCC2)cc1 [Compound 12c, N-Cyclopentyl-4–(2-((3-methylquinoxalin-2-yl)thio)acetamido)benzamide]	18.7 µM	31.3 µM	0.0198 µM	–
CCC(C)NC(=O)c1ccc(NC(=O)CSc2nc3ccccc3nc2C)cc1 (stereo not drawn) [Compound 12b, N-(sec-Butyl)-4–(2-((3-methylquinoxalin-2-yl)thio)acetamido)benzamide]	21.7 µM	35.7 µM	0.0157 µM	Cytotoxic activity against the two cell lines (in words) [2]: weak cytotoxic activity
Cc1nc2ccccc2nc1SCC(=O)Nc1ccc(C(=O)Nc2ccccn2)cc1 [Compound 12i, 4–(2-((3-Methylquinoxalin-2-yl)thio)acetamido)-N-(pyridin-2-yl)benzamide]	44.7 µM	58.6 µM	0.0241 µM	–
COc1ccccc1NC(=O)c1ccc(NC(=O)CSc2nc3ccccc3nc2C)cc1 [Compound 12d, N-(2-Methoxyphenyl)-4–(2-((3-methylquinoxalin-2-yl)thio)acetamido) benzamide]	17.6 µM	23.5 µM	0.0134 µM	–
Cc1nc2ccccc2n(CC(=O)Nc2ccc(C(=O)Nc3ccc(F)cc3)cc2)c1=O [Compound 11h, N-(4-Fluorophenyl)-4–(2-(3-methyl-2-oxoquinoxalin-1(2H)-yl)acetamido)benzamide]	22.7 µM	25.8 µM	0.0116 µM	Cytotoxic activity against the two cell lines (in words) [2]: weak cytotoxic activity
Cc1nc2ccccc2nc1SCC(=O)Nc1ccc(C(=O)Nc2ccc(F)cc2)cc1 [Compound 12h, N-(4-Fluorophenyl)-4–(2-((3-methylquinoxalin-2-yl)thio)acetamido)benzamide]	35.8 µM	67.8 µM	0.0514 µM	–
Cc1nc2ccccc2n(CC(=O)Nc2ccc(C(=O)NC3CCCC3)cc2)c1=O [Compound 11c, N-Cyclopentyl-4–(2-(3-methyl-2-oxoquinoxalin-1(2H)-yl)acetamido)benzamide]	18.7 µM	28.1 µM	0.0127 µM	–
COc1ccc(NC(=O)c2ccc(NC(=O)CSc3nc4ccccc4nc3C)cc2)cc1 [Compound 12f, N-(4-Methoxyphenyl)-4–(2-((3-methylquinoxalin-2-yl)thio)acetamido) benzamide]	7.5 µM	10.8 µM	0.0038 µM	–
Cc1cccc(NC(=O)c2ccc(NC(=O)CSc3nc4ccccc4nc3C)cc2)c1 [Compound 12j, 4–(2-((3-Methylquinoxalin-2-yl)thio)acetamido)-N-(m-tolyl)benzamide]	40.7 µM	61.2 µM	0.0378 µM	–
COc1ccccc1NC(=O)c1ccc(NC(=O)Cn2c(=O)c(C)nc3ccccc32)cc1 [Compound 11d, N-(2-Methoxyphenyl)-4–(2-(3-methyl-2-oxoquinoxalin-1(2H)-yl)acetamido)benzamide]	34.1 µM	52.3 µM	0.0374 µM	Cytotoxic activity against the two cell lines (in words) [2]: weak cytotoxic activity
Cc1nc2ccccc2n(CC(=O)Nc2ccc(C(=O)Nc3ccccn3)cc2)c1=O [Compound 11i, 4–(2-(3-Methyl-2-oxoquinoxalin-1(2H)-yl)acetamido)-N-(pyridin-2-yl)benzamide]	51.8 µM	69.7 µM	0.0527 µM	Cytotoxic activity against the two cell lines (in words) [2]: weak cytotoxic activity
CC(=O)c1ccc(NC(=O)c2ccc(NC(=O)CSc3nc4ccccc4nc3C)cc2)cc1 [Compound 12g, N-(4-Acetylphenyl)-4–(2-((3-methylquinoxalin-2-yl)thio)acetamido)benzamide]	6.1 µM	8.7 µM	0.0054 µM	–
CNC(=O)c1cc(Oc2ccc(NC(=O)Nc3ccc(Cl)c(C(F)(F)F)c3)cc2)ccn1 [Sorafenib, reference compound]	2.2 µM	3.4 µM	–	IC50 [4]: 13.4 µM
Cc1ccc(NC(=O)c2ccc(NC(=O)CSc3nc4ccccc4nc3C)cc2)cc1 [Compound 12k, 4–(2-((3-Methylquinoxalin-2-yl)thio)acetamido)-N-(p-tolyl)benzamide]	6.7 µM	9.8 µM	0.0029 µM	–
